Experiments:
[1] = molecular target: T1, HiBit-BRG1 fusion protein (Homo sapiens, UniProt P51532); assay: HiBiT-BRG1 cell-based degradation assay (Nano-Glo HiBiT lytic detection, 24 h); settings: HeLa cell line expressing HiBit-BRG1 and LgBit; for Dmax: read-out: BRG1 HiBit Degradation Maximum (%); for DC50: read-out: BRMG1 HiBit Degradation IC50
T1 construct: expressed in transfected cells
Experimental: Procedure: A stable HeLa cell line expressing HiBiT-BRM was generated. On day 0, 5000 cells were seeded in 40 μL of media into each well of 384-well cell culture plates. […] Subsequently plates were incubated for 24 h in a standard tissue culture incubator and equilibrated at room temperature for 15 minutes. Nano-GB HiBiT Lytic Detection System (Promega N3050) reagent was freshly prepared and 20 ul was added to each well. Upon addition of this LgBit-containing reagent, the HiBiT and LgBiT proteins associate to form the luminescent NanoBiT luciferase. The plates were shaken for 10 minutes at room temperature and the bioluminescence read using an EnVision plate reader (PerkinElmer).
For measurement of BRG1 degradation, a stable HeLa cell line expressing HiBit-BRG1 and LgBit was generated. The same protocol as above was then followed.
(§1) The degradation % was calculated using the following formula: % degradation=100%−100%×(Lumsample−LuMLC)/(LuMHC−LuMLC). DMSO treated cells are employed as High Control (HC) and 2 μM of a known BRM/BRG1 degrader standard treated cells are employed as Low Control (LC).

HiBit-BRM fusion protein = molecular target: T2, HiBit-BRM fusion protein (Homo sapiens, UniProt P51531); assay: HiBiT-BRM cell-based degradation assay (Nano-Glo HiBiT lytic detection, 24 h); settings: HeLa cell line expressing HiBiT-BRM; for DC50: read-out: BRM HiBit Degradation IC50
T2 construct: expressed in transfected cells
Experimental: Procedure: A stable HeLa cell line expressing HiBiT-BRM was generated. On day 0, 5000 cells were seeded in 40 μL of media into each well of 384-well cell culture plates. On day 1, cells were treated with 120 nL DMSO or 120 nL of 3-fold serially DMSO-diluted compounds (10 points in duplicate with 30 μM as final top dose). Subsequently plates were incubated for 24 h in a standard tissue culture incubator and equilibrated at room temperature for 15 minutes. Nano-GB HiBiT Lytic Detection System (Promega N3050) reagent was freshly prepared and 20 ul was added to each well. Upon addition of this LgBit-containing reagent, the HiBiT and LgBiT proteins associate to form the luminescent NanoBiT luciferase. The plates were shaken for 10 minutes at room temperature and the bioluminescence read using an EnVision plate reader (PerkinElmer).
as §1

T2 sequence (P51531 whole entry, the tested form may be a part): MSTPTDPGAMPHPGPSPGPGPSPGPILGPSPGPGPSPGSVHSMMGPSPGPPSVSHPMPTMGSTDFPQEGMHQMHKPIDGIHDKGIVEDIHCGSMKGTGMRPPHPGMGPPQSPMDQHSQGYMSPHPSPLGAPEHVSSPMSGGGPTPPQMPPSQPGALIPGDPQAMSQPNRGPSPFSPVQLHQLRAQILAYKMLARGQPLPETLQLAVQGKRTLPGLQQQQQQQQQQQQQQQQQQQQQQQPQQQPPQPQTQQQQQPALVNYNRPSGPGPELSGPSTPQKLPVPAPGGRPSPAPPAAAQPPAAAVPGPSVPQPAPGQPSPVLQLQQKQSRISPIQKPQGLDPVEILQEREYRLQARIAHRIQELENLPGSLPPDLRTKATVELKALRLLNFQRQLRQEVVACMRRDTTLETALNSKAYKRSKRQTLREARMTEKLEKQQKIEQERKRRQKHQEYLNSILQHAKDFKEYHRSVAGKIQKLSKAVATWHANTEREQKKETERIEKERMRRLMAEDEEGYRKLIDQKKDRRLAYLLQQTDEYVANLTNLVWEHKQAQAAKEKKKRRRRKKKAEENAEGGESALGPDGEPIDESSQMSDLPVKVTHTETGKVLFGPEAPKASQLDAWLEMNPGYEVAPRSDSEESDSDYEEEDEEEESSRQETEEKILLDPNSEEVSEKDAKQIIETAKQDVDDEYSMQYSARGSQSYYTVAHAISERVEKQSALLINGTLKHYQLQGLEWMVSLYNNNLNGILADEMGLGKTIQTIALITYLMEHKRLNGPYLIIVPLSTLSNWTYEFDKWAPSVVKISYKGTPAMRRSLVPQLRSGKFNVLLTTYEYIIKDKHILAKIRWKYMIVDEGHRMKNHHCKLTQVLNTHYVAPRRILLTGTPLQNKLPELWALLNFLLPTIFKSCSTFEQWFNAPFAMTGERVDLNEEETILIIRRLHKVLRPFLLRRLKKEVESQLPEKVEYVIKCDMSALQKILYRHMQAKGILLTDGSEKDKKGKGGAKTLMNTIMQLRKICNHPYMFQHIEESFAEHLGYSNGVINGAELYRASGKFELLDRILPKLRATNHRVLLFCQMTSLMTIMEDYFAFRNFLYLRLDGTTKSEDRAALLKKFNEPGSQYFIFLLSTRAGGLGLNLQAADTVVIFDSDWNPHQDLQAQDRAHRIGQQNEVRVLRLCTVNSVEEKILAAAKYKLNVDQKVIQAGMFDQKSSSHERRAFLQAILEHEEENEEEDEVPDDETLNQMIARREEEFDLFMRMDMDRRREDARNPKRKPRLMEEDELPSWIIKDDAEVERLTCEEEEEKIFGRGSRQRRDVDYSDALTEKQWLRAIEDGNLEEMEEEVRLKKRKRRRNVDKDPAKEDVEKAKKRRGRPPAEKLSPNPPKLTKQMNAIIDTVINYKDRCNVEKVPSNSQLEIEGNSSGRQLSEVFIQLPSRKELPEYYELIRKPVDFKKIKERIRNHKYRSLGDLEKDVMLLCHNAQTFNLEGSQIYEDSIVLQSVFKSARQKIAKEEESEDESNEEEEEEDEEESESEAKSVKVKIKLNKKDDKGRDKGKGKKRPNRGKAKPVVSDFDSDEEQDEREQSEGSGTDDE
T1 sequence (P51532 whole entry, the tested form may be a part): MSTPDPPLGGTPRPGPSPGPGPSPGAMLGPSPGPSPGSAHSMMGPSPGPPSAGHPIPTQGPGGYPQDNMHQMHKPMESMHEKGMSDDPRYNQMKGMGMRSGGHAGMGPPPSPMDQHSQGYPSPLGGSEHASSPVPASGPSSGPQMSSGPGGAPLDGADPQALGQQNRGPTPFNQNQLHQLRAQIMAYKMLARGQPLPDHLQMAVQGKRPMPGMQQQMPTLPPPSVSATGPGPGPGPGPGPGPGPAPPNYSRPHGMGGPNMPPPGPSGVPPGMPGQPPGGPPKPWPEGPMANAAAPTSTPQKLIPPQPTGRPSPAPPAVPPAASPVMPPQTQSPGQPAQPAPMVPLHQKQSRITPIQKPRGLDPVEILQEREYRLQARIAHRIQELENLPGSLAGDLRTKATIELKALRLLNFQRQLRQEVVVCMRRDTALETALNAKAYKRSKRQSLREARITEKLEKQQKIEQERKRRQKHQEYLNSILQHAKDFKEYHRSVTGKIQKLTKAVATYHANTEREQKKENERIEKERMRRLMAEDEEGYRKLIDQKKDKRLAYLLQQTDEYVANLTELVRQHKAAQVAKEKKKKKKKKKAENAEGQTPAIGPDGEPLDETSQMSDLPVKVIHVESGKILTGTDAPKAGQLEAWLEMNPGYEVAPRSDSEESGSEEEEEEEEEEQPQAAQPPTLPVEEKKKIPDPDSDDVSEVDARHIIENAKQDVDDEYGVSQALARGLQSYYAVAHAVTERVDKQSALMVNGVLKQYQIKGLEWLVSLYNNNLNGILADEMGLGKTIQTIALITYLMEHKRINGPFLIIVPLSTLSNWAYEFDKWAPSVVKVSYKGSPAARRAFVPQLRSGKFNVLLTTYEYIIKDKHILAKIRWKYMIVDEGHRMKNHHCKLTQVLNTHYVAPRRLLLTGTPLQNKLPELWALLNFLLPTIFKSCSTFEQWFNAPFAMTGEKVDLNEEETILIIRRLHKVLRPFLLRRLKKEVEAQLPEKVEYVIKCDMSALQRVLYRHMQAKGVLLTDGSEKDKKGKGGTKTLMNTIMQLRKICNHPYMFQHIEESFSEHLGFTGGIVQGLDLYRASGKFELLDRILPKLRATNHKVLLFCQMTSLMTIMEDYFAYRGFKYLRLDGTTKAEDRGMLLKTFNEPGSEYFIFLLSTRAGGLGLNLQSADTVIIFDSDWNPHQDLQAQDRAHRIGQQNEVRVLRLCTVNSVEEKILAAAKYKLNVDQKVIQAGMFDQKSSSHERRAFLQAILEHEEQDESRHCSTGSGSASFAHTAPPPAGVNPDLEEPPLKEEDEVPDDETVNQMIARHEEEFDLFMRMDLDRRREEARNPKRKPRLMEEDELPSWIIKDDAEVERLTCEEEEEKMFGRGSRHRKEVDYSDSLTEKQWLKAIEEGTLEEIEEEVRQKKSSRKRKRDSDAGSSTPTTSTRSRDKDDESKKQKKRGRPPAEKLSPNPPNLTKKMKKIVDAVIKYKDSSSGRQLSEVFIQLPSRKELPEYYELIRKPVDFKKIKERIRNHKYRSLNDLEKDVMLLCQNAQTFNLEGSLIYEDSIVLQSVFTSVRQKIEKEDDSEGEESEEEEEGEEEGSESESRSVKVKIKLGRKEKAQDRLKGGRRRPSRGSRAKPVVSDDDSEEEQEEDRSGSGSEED

Compound | Dmax [1] [%] | BRM HiBit Degradation Maximum (%) (HiBit-BRM fusion protein) | DC50 (HiBit-BRM fusion protein) [nM] | DC50 [1] [nM]
Cc1ncsc1-c1ccc([C@H](C)NC(=O)[C@@H]2C[C@@H](O)CN2C(=O)[C@@H](c2cc(-c3cnc(N4CCC(c5cc6nnc(-c7ccccc7O)cc6n5C5CC5)CC4)nc3)no2)C(C)C)cc1 [Compound 25, (2S,4R)-1-[(2R)-2-[3-(2-{4-[5-cyclopropyl-3-(2-hydroxyphenyl)pyrrolo[3,2-c]pyridazin-6-yl]piperidin-1-yl}pyrimidin-5-yl)-1,2-oxazol-5-yl]-3-methylbutanoyl]-4-hydroxy-N-[(1S)-1-[4-(4-methyl-1,3-thiazol-5-yl)phenyl]ethyl]pyrrolidine-2-carboxamide] | < 50 | A (“A” indicates maximum degradation ≥75%) | < 10 | 
Cc1ncsc1-c1ccc([C@H](C)NC(=O)[C@@H]2C[C@@H](O)CN2C(=O)[C@H](c2cc(-c3cnc(N4CCC(c5cc6nnc(-c7ccccc7O)cc6n5C5CC5)CC4)nc3)no2)C(C)C)cc1 [Compound 26, (2S,4R)-1-[(2S)-2-[3-(2-{4-[5-cyclopropyl-3-(2-hydroxyphenyl)pyrrolo[3,2-c]pyridazin-6-yl]piperidin-1-yl}pyrimidin-5-yl)-1,2-oxazol-5-yl]-3-methylbutanoyl]-4-hydroxy-N-[(1S)-1-[4-(4-methyl-1,3-thiazol-5-yl)phenyl]ethyl]pyrrolidine-2-carboxamide] | < 50 | C (“C” indicates maximum degradation <50%) |  | 
Cc1ncsc1-c1ccc([C@H](C)NC(=O)[C@@H]2C[C@@H](O)CN2C(=O)[C@@H](c2cc(OCCN3CCN(c4cc5nnc(-c6ccccc6O)cc5n4C)CC3)no2)C(C)C)cc1 [Compound 27, (2S,4R)-4-hydroxy-1-[(2R)-2-[3-(2-{4-[3-(2-hydroxyphenyl)-5-methylpyrrolo[3,2-c]pyridazin-6-yl]piperazin-1-yl}ethoxy)-1,2-oxazol-5-yl]-3-methylbutanoyl]-N-[(1S)-1-[4-(4-methyl-1,3-thiazol-5-yl)phenyl]ethyl]pyrrolidine-2-carboxamide] | > 75 | A (“A” indicates maximum degradation ≥75%) | < 10 | > 10
Cc1ncsc1-c1ccc([C@H](C)NC(=O)[C@@H]2C[C@@H](O)CN2C(=O)[C@@H](c2cc(-c3cnc(N4CCN(c5cc6nnc(-c7ccccc7O)cc6n5C)CC4)nc3)no2)C(C)C)cc1 [Compound 28, (2S,4R)-4-hydroxy-1-[(2R)-2-[3-(2-{4-[3-(2-hydroxyphenyl)-5-methylpyrrolo[3,2-c]pyridazin-6-yl]piperazin-1-yl}pyrimidin-5-yl)-1,2-oxazol-5-yl]-3-methylbutanoyl]-N-[(1S)-1-[4-(4-methyl-1,3-thiazol-5-yl)phenyl]ethyl]pyrrolidine-2-carboxamide] | > 75 | A (“A” indicates maximum degradation ≥75%) | < 10 | < 10
Cc1ncsc1-c1ccc([C@H](C)NC(=O)[C@@H]2C[C@@H](O)CN2C(=O)[C@H](c2cc(-c3cnc(N4CCN(c5cc6nnc(-c7ccccc7O)cc6n5C)CC4)nc3)no2)C(C)C)cc1 [Compound 29, (2S,4R)-4-hydroxy-1-[(2S)-2-[3-(2-{4-[3-(2-hydroxyphenyl)-5-methylpyrrolo[3,2-c]pyridazin-6-yl]piperazin-1-yl}pyrimidin-5-yl)-1,2-oxazol-5-yl]-3-methylbutanoyl]-N-[(1S)-1-[4-(4-methyl-1,3-thiazol-5-yl)phenyl]ethyl]pyrrolidine-2-carboxamide] | < 50 | A (“A” indicates maximum degradation ≥75%) | > 10 | 

From patent US20250302832A1, “PYRAZINE DERIVATIVES AND USES THEREOF” (FOGHORN THERAPEUTICS INC., priority 2022, published 2025)
